Test results from ChEMBL document CHEMBL1152268, “Discovery and SAR of novel 4-thiazolyl-2-phenylaminopyrimidines as potent inhibitors of spleen tyrosine kinase (SYK)” (Bioorg Med Chem Lett, 2008).
Calls of active or inactive are those of the source. The calls are words filed in the database; no cut-off is given here.

What was measured:
[1] = target: T1, Tyrosine-protein kinase ZAP-70 (Homo sapiens, UniProt P43403); assay: (§1) Inhibition of ZAP70
T1 sequence (P43403 whole entry): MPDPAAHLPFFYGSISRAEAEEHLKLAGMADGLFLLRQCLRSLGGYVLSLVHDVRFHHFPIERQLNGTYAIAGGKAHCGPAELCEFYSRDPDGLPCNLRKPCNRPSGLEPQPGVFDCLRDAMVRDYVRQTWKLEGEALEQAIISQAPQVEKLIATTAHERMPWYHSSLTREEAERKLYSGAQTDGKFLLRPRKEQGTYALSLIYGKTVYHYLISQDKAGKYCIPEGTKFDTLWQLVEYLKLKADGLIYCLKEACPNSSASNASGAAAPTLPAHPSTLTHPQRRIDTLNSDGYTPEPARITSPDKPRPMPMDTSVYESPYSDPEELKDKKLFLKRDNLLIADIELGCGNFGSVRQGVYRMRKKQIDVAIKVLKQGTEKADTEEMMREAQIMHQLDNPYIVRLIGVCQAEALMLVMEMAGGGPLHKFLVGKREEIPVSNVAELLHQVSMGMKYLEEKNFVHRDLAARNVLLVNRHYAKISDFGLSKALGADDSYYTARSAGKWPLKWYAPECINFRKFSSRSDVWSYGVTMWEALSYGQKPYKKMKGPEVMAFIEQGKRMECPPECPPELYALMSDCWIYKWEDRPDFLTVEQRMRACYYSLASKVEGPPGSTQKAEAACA

[2] = target: Tyrosine-protein kinase SYK (Homo sapiens, UniProt P43405)
[3] = target: Proto-oncogene tyrosine-protein kinase Src (Homo sapiens, UniProt P12931); assay: Inhibition of SRC
[4] = (§2) Metabolic stability in rat liver microsomes after 30 mins; type: ADME, Microsome; details: liver microsomes, read-out: Stability
[5] = target: Cyclin-dependent kinase 2 (Homo sapiens, UniProt P24941); assay: Inhibition of CDK2
[6] = tested on: Liver microsomes; assay: as §2; type: ADME, Microsome; details: microsomes, 0.5 h
[7] = target: T2, Tyrosine-protein kinase ZAP-70 (Homo sapiens) (UniProt P43403); assay: as §1
T2 sequence (whole entry): T1 sequence (P43403 whole entry)

Sequence of Proto-oncogene tyrosine-protein kinase Src (P12931 2-536 limits assumed): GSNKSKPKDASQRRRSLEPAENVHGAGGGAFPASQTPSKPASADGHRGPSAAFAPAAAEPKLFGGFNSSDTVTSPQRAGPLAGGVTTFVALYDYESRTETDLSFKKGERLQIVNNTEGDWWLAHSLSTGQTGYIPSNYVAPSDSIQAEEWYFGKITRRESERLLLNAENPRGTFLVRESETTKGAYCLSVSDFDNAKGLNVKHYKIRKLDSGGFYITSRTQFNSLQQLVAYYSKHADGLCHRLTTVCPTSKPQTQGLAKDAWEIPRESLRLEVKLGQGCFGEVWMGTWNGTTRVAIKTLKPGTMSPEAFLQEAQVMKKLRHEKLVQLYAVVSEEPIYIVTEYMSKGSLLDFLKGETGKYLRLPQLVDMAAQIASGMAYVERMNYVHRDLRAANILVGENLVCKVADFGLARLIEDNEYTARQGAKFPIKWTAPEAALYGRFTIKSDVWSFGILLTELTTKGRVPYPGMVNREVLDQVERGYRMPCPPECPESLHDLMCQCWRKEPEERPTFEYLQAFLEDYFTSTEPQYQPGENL

Ki [1] [µM]	Ki [2] [µM]	Ki [3] [µM]	remaining at 0.5 h [4] [%]	Ki [5] [µM]	Activity [6]	IC50 [2] [µM]	Activity [7]	Activity	Compound
0.677	0.026	0.422	68	> 5					OCCCOc1cc(Nc2nccc(-c3nccs3)n2)cc(C(F)(F)F)c1
0.891	0.11	1.36		> 5	Not Active				Cc1cc(Nc2nccc(-c3nccs3)n2)cc(C(F)(F)F)c1
0.45	0.01	2.23	35	2.4					Cc1cc(C)cc(Nc2nccc(-c3nc(CO)cs3)n2)c1
0.754	0.044	0.991	24	1.65					Oc1cc(Nc2nccc(-c3nccs3)n2)cc(C(F)(F)F)c1
0.75	0.01	1.8	64	1.5					Cc1cc(Nc2nccc(-c3nc(CO)cs3)n2)cc(C(F)(F)F)c1
1.14	0.023	3.7		> 2.5	Not Active				COc1cc(Nc2nccc(-c3ncc(C)s3)n2)cc(C(F)(F)F)c1
2.15	0.028	1.83	54	> 5					COc1cc(Nc2nccc(-c3nccs3)n2)cc(C(F)(F)F)c1
3.5	0.022	3.5	80	> 2.5					Cc1cc(Nc2nccc(-c3nc(C)c(CCO)s3)n2)cc(C(F)(F)F)c1
1	0.033	3.5		> 2.5	Not Active				COc1cc(Nc2nccc(-c3nc(CO)cs3)n2)cc(C(F)(F)F)c1
0.68	0.05	4	50	1.5					OCc1csc(-c2ccnc(Nc3cc(O)cc(C(F)(F)F)c3)n2)n1

The remaining lines, values behind:

Compound	Ki [1] [µM]	Ki [2] [µM]	Ki [3] [µM]	remaining at 0.5 h [4] [%]	Ki [5] [µM]	Activity [6]	IC50 [2] [µM]	Activity [7]	Activity
Cc1cc(C)cc(Nc2nccc(-c3ncc(C)s3)n2)c1	0.41	0.023	0.348		1.1	15%			
NCCCNc1nc(-c2ccc(N3CCOCC3)cc2)cc2ccccc12							0.008		
Cc1cc(C)cc(Nc2nccc(-c3nccs3)n2)c1	0.419	0.008	1.06	24	> 5				
Cc1cc(C)cc(Nc2nccc(-c3nc(C)c(CCO)s3)n2)c1	0.56	0.032	3.5	65	2.27				
c1ccc(Oc2cccc(Nc3nccc(-c4nccs4)n3)c2)cc1		0.63							
Cc1cc(C)cc(Nc2nccc(-c3nc(C)cs3)n2)c1	1.03	0.056	2.03		0.1	5%			
COc1cc(Nc2nccc(-c3nccs3)n2)cc(OC)c1	0.318	0.014	0.862	12	> 5				
Cc1cc(C)cc(Nc2nccc(-c3ncc(CO)s3)n2)c1	0.27	0.004	2	37	> 2.5				
Cc1cccc(Nc2nccc(-c3nccs3)n2)c1	1.55	0.082	2.98		2.45	Not Active			
Cc1cc(C)cc(Nc2nccc(-c3nc(C)c(C(=O)N[C@H](C)CO)s3)n2)c1	1.5	0.21	> 3.33		> 3.33				
Cc1cc(C)cc(Nc2nccc(-c3nc(C)c(C(=O)N[C@@H](C)CO)s3)n2)c1	0.24		> 3.33		> 3.33				
Cc1ccc(C)c(Nc2nccc(-c3nccs3)n2)c1		1.82	0.153		> 5	Not Active		inactive	inactive
